From ChEMBL document CHEMBL1201862, “PubChem BioAssay data set” (2004)
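Tested at 5 concentrations; 48 h exposure; 96-well plates; endpoints linearly interpolated, else capped at highest concentration. GI50 marks 50% less growth.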 The source made the active and inactive calls. No stated cut-off is given here; in the data, active = GI50 up to about 1.1 µM and inactive = higher.

Legend:
Test in all cases: DTP human tumour cell line panel, 48 h
Malme-3M = tested on: Malme-3M
OVCAR-4 = tested on: OVCAR-4
MDA-N = tested on: MDA-N
CCRF-CEM = tested on: CCRF-CEM
SK-OV-3 = tested on: SK-OV-3
SR = tested on: SR
SF-295 = tested on: SF-295
A498 = tested on: A498
OVCAR-8 = tested on: OVCAR-8
LOX IMVI = tested on: LOX IMVI
SK-MEL-5 = tested on: SK-MEL-5
HL-60 = tested on: HL-60
NCI-H23 = tested on: NCI-H23
MDA-MB-435 = tested on: MDA-MB-435
UACC-257 = tested on: UACC-257
EKVX = tested on: EKVX
SNB-19 = tested on: SNB-19
RXF 393 = tested on: RXF 393
DU-145 = tested on: DU-145
U-251 = tested on: U-251

Structure (SMILES) | GI50 (Malme-3M) | GI50 (OVCAR-4) | GI50 (MDA-N) | GI50 (CCRF-CEM) | GI50 (SK-OV-3) | GI50 (SR) | GI50 (SF-295) | GI50 (A498) | GI50 (OVCAR-8) | GI50 (LOX IMVI) | GI50 (SK-MEL-5) | GI50 (HL-60) | GI50 (NCI-H23) | GI50 (MDA-MB-435) | GI50 (UACC-257) | GI50 (EKVX) | GI50 (SNB-19) | GI50 (RXF 393) | GI50 (DU-145) | GI50 (U-251)
CC1=C(C(=O)OC23CC4CC(CC(C4)C2)C3)C(c2ccccc2OC(F)F)C(C(=O)OC23CC4CC(CC(C4)C2)C3)=C(C)N1 (stereo not given) | > 100 µM (inactive) | > 100 µM (inactive) | > 100 µM (inactive) | > 100 µM (inactive) | > 100 µM (inactive) | > 100 µM (inactive) | > 100 µM (inactive) | > 100 µM (inactive) | > 100 µM (inactive) | > 100 µM (inactive) | > 100 µM (inactive) | > 100 µM (inactive) | > 100 µM (inactive) | > 100 µM (inactive) | > 100 µM (inactive) | > 10 µM (inactive) | > 100 µM (inactive) | > 100 µM (inactive) | > 100 µM (inactive) | > 100 µM (inactive)
COC1(OC)C2(Cl)C(Cl)=C(Cl)C1(Cl)C1c3ccc(C(C)=O)c4cccc(c34)C12 (stereo not given) | 12.3 µM (inactive) | 27.9 µM (inactive) | 14.8 µM (inactive) | 13.8 µM (inactive) | 52.1 µM (inactive) | 13.7 µM (inactive) | 26 µM (inactive) | 14.3 µM (inactive) | 48.6 µM (inactive) | 22.5 µM (inactive) | 10.4 µM (inactive) | 4.42 µM (inactive) | 7.16 µM (inactive) | 7.67 µM (inactive) | 25.6 µM (inactive) | 41.6 µM (inactive) | > 59 µM (inactive) | 27.7 µM (inactive) | 26.2 µM (inactive) | 30.3 µM (inactive)
CCNCCCCNCCCCNCCCCNCCCCNCC | 6.49 µM (inactive) | > 22.2 µM (inactive) | 12.3 µM (inactive) | 63.5 µM (inactive) | > 100 µM (inactive) | 56.4 µM (inactive) | 42 µM (inactive) | > 94.2 µM (inactive) | > 100 µM (inactive) | 32 µM (inactive) | 53.5 µM (inactive) | 9.04 µM (inactive) | 9.08 µM (inactive) | 8.97 µM (inactive) | 40.1 µM (inactive) | 53.5 µM (inactive) | 99.8 µM (inactive) | 27.7 µM (inactive) | > 100 µM (inactive) | > 100 µM (inactive)
CC(C)=CCC[C@@H](C)C1=C(Nc2ccccc2)C(=O)C(C)=C(O)C1=O | 4.2 µM (inactive) | 6.62 µM (inactive) | 4.54 µM (inactive) | 0.239 µM (active) | 5.58 µM (inactive) | 0.631 µM (active) | 1.85 µM (inactive) | 3.34 µM (inactive) | 2.1 µM (inactive) | 3.92 µM (inactive) | 2 µM (inactive) | 0.303 µM (active) | 2.82 µM (inactive) | 4.72 µM (inactive) | 5.53 µM (inactive) | 3.86 µM (inactive) | 3.77 µM (inactive) | 3.78 µM (inactive) | 4.59 µM (inactive) | 2.74 µM (inactive)
COc1ccc(N2C(=O)C3c4[nH]c5ccc([N+](=O)[O-])cc5c4C4CCC(C(C)(C)C)CC4C3C2=O)cc1 (stereo not given) | 28.4 µM (inactive) | 14.8 µM (inactive) | 20.3 µM (inactive) | 4.51 µM (inactive) | > 100 µM (inactive) | 3.72 µM (inactive) | 13.7 µM (inactive) | 2.26 µM (inactive) | 23.6 µM (inactive) | 15.2 µM (inactive) | 12.4 µM (inactive) | 8.02 µM (inactive) | 6.53 µM (inactive) | 18.7 µM (inactive) | 35.2 µM (inactive) | 15.5 µM (inactive) | 35.7 µM (inactive) | 3.33 µM (inactive) | 32.8 µM (inactive) | 19.3 µM (inactive)
Oc1cccc(-c2cn3cc(Cl)ccc3n2)c1 | 51.6 µM (inactive) | 32.1 µM (inactive) | 39.8 µM (inactive) | 7.03 µM (inactive) | 96.6 µM (inactive) | 47.2 µM (inactive) | 39.4 µM (inactive) | 45.3 µM (inactive) | 31.4 µM (inactive) | 45.7 µM (inactive) | 16.6 µM (inactive) | 5.4 µM (inactive) | 51.8 µM (inactive) | 34.9 µM (inactive) | 25.6 µM (inactive) | 24.3 µM (inactive) | > 100 µM (inactive) | 23.1 µM (inactive) | 31 µM (inactive) | 69.2 µM (inactive)
O=C(NC(Nc1ccc(F)cc1)(C(F)(F)F)C(F)(F)F)C(C(F)(F)F)C(F)(F)F | 48 µM (inactive) | 5.52 µM (inactive) | 9.84 µM (inactive) | 3.13 µM (inactive) | 72.1 µM (inactive) | 18.6 µM (inactive) | 3.01 µM (inactive) | 62.2 µM (inactive) | 3.18 µM (inactive) | 0.617 µM (active) | 1.43 µM (inactive) | 1.04 µM (active) | 18.1 µM (inactive) | 1.13 µM (inactive) | 3.3 µM (inactive) | 24.7 µM (inactive) | 48.2 µM (inactive) | 33.3 µM (inactive) | 9.93 µM (inactive) | 57.4 µM (inactive)
C=CCN1C(=O)CC2[C@@H]3CCc4cc(O)ccc4C3CC[C@]2(C)C1=O (stereo not given in full) | > 10 µM (inactive) | > 10 µM (inactive) | > 10 µM (inactive) | > 10 µM (inactive) | > 10 µM (inactive) | > 10 µM (inactive) | > 10 µM (inactive) | > 10 µM (inactive) | > 10 µM (inactive) | > 10 µM (inactive) | > 10 µM (inactive) | > 10 µM (inactive) | > 10 µM (inactive) | > 10 µM (inactive) | > 10 µM (inactive) | > 10 µM (inactive) | > 10 µM (inactive) | > 10 µM (inactive) | > 10 µM (inactive) | > 10 µM (inactive)
CC1OC(OC2C[C@](O)(C(=O)CBr)Cc3c(O)c4c(c(O)c32)C(=O)c2ccccc2C4=O)C(F)C(O)C1O (stereo not given in full) | 3.66 µM (inactive) | 23.6 µM (inactive) | 16.3 µM (inactive) | 0.776 µM (active) | 33.6 µM (inactive) | 0.426 µM (active) | 3.54 µM (inactive) | 11.8 µM (inactive) | 16.1 µM (inactive) | 10 µM (inactive) | 8.95 µM (inactive) | 0.838 µM (active) | 5.58 µM (inactive) | 14.1 µM (inactive) | 13.3 µM (inactive) | 46.6 µM (inactive) | 5.86 µM (inactive) | 18.5 µM (inactive) | 5.28 µM (inactive) | 5.83 µM (inactive)
CCCCCCCCCCCCCCCCCc1cccc(OCOCCOC)c1C(=O)O | 10.2 µM (inactive) | 19.5 µM (inactive) | 19.1 µM (inactive) | 26.7 µM (inactive) | 14 µM (inactive) | 25.4 µM (inactive) | 18.1 µM (inactive) | 17.8 µM (inactive) | 16.4 µM (inactive) | 24.6 µM (inactive) | 20 µM (inactive) | 20.9 µM (inactive) | 15.2 µM (inactive) | 19.2 µM (inactive) | 20.5 µM (inactive) | 18.9 µM (inactive) | 21.3 µM (inactive) | 17.9 µM (inactive) | 17.7 µM (inactive) | 20.3 µM (inactive)
